ChEMBL document CHEMBL1142594, “Antioxidative constituents of Etlingera elatior” (J Nat Prod, 2005)

Test: Antioxidant activity assessed as inhibition of lipid peroxidation at 300 uM by ferric thiocyanate method
Format: functional

Compound | inhibition [%]
O=C(/C=C/C=C/c1ccc(O)cc1)/C=C/c1ccc(O)cc1 | 92.1
O=C(/C=C/C=C/C=C/c1ccc(O)cc1)c1ccc(O)cc1 | 93.7
Cc1c(C)c2c(c(C)c1O)CC[C@@](C)(CCC[C@H](C)CCC[C@H](C)CCCC(C)C)O2 | 69.5
COc1cc(/C=C/C(O)=C/C(=O)/C=C/c2ccc(O)cc2)ccc1O | 92.5
